Experiments:
[1] = test system: model of sarcopenia caused by aging; assay: Aging animal model, 22-month-old mice (Experimental Example 2); format: in vivo, C57BL/6J mice
Source text: For an experimental group in the present invention, oxiracetam having a structure of Formula 1 was purchased from Tokyo Chemical Industry (Japan; Product No. 00398, CAS RN:62613-82-5, purity: 96%) and used.
(§1) As a model of sarcopenia caused by aging, 22-month-old male C57BL/6J mice were used. Until the day of the experiment, general feed (EEGJ30060: Cargill Agri Purina, Seongnam, Korea) and water were sufficiently supplied to the experimental animals, and the animals were acclimated for 1 week under an environment of a temperature of 23±2° C., a humidity of 55±10%, and a light-dark cycle of 12 hours-12 hours and used in the experiment.
The animals were randomly divided into groups of 10 animals, such as a control (vehicle, n=10), and 30, 100, and 300 mg/kg/day oxiracetam-administered groups (n=10 per concentration). To the oxiracetam-administered group, oxiracetam was orally administered using a Zonde needle for 90 days once a day at a dose of 30, 100, or 300 mg/kg/day. During the same period, no drug was administered to the control group, and 100 μL of normal saline was orally administered at a time.
To measure grip strength, a grip strength test was performed. The maximum force presented when the forelimbs of an animal model of each group could no longer hold the rod by pulling the tail horizontally while holding the tail of the animal model and holding the rod of a device with both front paws was considered to be grip strength (N). The grip strength was measured once every 3 days, and after repeating five measurements at one time, the average value was shown. Grip strength adaptation training was performed at least three times before drug administration.
The lean body mass of the gastrocnemius muscle (GS) and the lean body mass of the tibialis anterior (TA) for each group was measured every 7 days. Specifically, animal models of each group were anesthetized using 3% isoflurane, fixed to a photographing bed and then photographed. During photographing, the respiratory rates and body temperatures of the animal models were measured with an animal monitoring system (SA Instruments, USA).
(§2) The whole body of the animal model was photographed through dual energy X-ray absorptiometry (DEXA) using iNSiGHT VET DXA (Osteosys, KR), and the lean body mass of each of the gastrocnemius muscle (GS) and the tibialis anterior (TA) was measured and calculated from the two-dimensional images of the gastrocnemius muscle (GS) and the tibialis anterior (TA) by a program using the region of interest (ROI).
(§3) At 90 days after the start of the experiment, an exercise stress test was performed. First, the experimental animals in each group were acclimatized to a treadmill machine twice before measurement (1st round: inclination 10°, 10 minutes at 5 m/min and 10 minutes at 10 m/min; 2nd round: inclination 10°, 5 minutes at 5 m/min and 15 munutes at 10 m/min). On the day of the experiment, the experimental animals were allowed to run for 20 minutes at an initial speed of 10 m/min at an inclination of 10°, and then the speed was increased by 2 m/min every 2 minutes, and then the running distance and time were measured with the end point when the experimental animal stayed for 10 seconds without running.
(§4) Statistical processing was performed using GraphPad Prism (GraphPad Software Inc., San Diego, CA, USA). The results of each repeated experiment were expressed as mean±standard error of mean, and analyzed using the analysis of variance (Tukey's test), and statistical significance was acknowledged when the P-value was 0.05 or less.

[2] = test system: dexamethasone-induced muscular atrophy animal model; assay: Dexamethasone-induced muscular atrophy animal model (Experimental Example 1); format: in vivo, ICR mice; conditions: compared to dexamethasone-treated group (excipient)
Source text: 1-1. Preparation of experimental animals and samples For an experimental group in the present invention, oxiracetam
having a structure of Formula 1 was purchased from Tokyo Chemical Industry (Japan; Product No. 00398, CAS RN:62613-82-5, purity: 96%) and used. As experimental animals, 7-week-old male ICR mice were
as §1, with “purchased and” for “As a model of sarcopenia caused by aging, 22-month-old male C57BL/6J mice were”
After the acclimation period for the experimental animals, to create a muscular atrophy model, the mice were randomly divided into groups of 10 animals, such as a normal group (n=10), a dexamethasone-treated group (n=10), and an oxiracetam-administered group (n=10). The groups except for the normal group were intraperitoneally injected with dexamethasone at a dose of 10 mg/kg from day 7 to day 21 for 14 days. In the case of the oxiracetam-administered group, 7 days before the intraperitoneal administration of dexamethasone, oxiracetam was orally administered using a Zonde needle at a dose of 30 mg/kg/day once a day for 21 days. During the same period, the normal group was administered no drug, and 100 μL of normal saline was orally administered at a time.
The lean body mass for the gastrocnemius muscle (GS) and tibialis anterior (TA) for each group was measured every 7 days. Specifically, animal models of each group were anesthetized using 3% isoflurane, fixed to a photographing bed, and then photographed. The respiration rates and temperatures of the animal models during photographing were measured using an animal monitoring system (SA Instruments, USA).
as §2
To measure grip strength, a grip strength test was performed. […] The grip strength was measured once every 2 days and 11 times for each mouse.
Tibialis anterior diameters (T1) were measured from two-dimensional images captured by dual-energy X-ray absorptiometry (DEXA) for each group and compared.
as §3, with “First,” for “At 90 days after the start of the experiment, an exercise stress test was performed. First,”, “2n d” for “2nd”, “minutes” for “munutes”
as §4

[3] = Oxi 30, Oxi 100, Oxi 300 mg/kg/day oral, DEXA every 7 days, compared to control
[4] = oxiracetam 30 mg/kg/day oral 21 days + dexamethasone, DEXA

## NC(=O)CN1CC(O)CC1=O (racemic) [oxiracetam, (RS)-2-(4-hydroxy-2-oxopyrrolidin-1-yl)acetamide]
[1]; [3]
  lean body mass of the gastrocnemius muscle (GS): increased rather than decreased
  lean body mass of the tibialis anterior (TA): increased rather than decreased
[1]; Oxi 30, Oxi 100, Oxi 300, day 90, compared to control
  physical performance capacity (athletic ability), treadmill running distance and time: increased rather than decreased
[1]; Oxi 300 group (300 mg/kg/day), day 90
  physical performance capacity (athletic ability), treadmill running distance and time: significantly increased
[1]; Oxi 300 group (300 mg/kg/day), from week 7
  lean body mass of the gastrocnemius muscle (GS): significantly increased
[1]; oxiracetam 30, 100 and 300 mg/kg/day oral 90 days, versus control (vehicle)
  change in grip strength: suppressed and rather increased
[2]; oxiracetam 30 mg/kg/day oral 21 days + dexamethasone 10 mg/kg i.p. day 7-21, DEXA
  tibialis anterior (TA) diameter (T1): significantly increased
[2]; [4]
  lean body mass of the gastrocnemius muscle (GS): the decrease was significantly suppressed
  lean body mass of the tibialis anterior (TA): the decrease was significantly suppressed
[2]; oxiracetam 30 mg/kg/day oral 21 days + dexamethasone
  grip strength: significantly increased
[2]; oxiracetam 30 mg/kg/day oral + dexamethasone
  exercise stress test (treadmill): athletic ability: significant improvement
